System: 885724-159-R-J1-PDC complex spheroid viability
Test: Anticancer human tumor 885724-159-R-J1-PDC patient-derived pancreatic adenocarcinoma cell line growth inhibition [POLQ]
Conditions: for IC50: curve of first compound; for viability, T/C: stronger effect = lower value
Experimental: Multicellular complex tumor spheroid response to Polymerase (POL) inhibitors (novobiocin, ART-558, RP6685) in combination with a variety of drugs and investigational agents in selected tumor cell lines
The POL inhibitors (novobiocin, ART-558, and RP6685) were evaluated both individually and in combination with standard of care and investigational anticancer small molecules within a complex spheroid model of solid tumors. . Complex spheroids include a stromal component modeled by human endothelial cells (HUVEC) and fibroblasts modeled by human mesenchymal stem cells (MSCs). The concentration ranges selected for each drug and investigational agent were based upon clinically achievable concentrations if the clinical Cmax of the agent was known.
Compounds. The drugs and investigational agents: novobiocin (NSC847541), ART-558 (NSC835418), RP-6685 (NSC848927), peposertib (NSC802822), ceralasertib (NSC780249), elimusertib (NSC800525), camonsertib (NSC841442), AZD-1390 (NSC803789), olaparib (NSC753686), talazoparib (NSC767125), rucaparib (NSC756644), sotorasib (NSC818433), MRTX-1133 (NSC836407), SN-38 (NSC673596), topotecan (NSC609699), epotoside (NSC141540), doxorubicin (NSC123127), gemcitabine (NSC613327), 5-fluorouracil (NSC19893), paclitaxel (NSC125973), vemurafenib (NSC761431), MSA-2 (NSC828583), SN-011 (NSC837082), adavosertib (NSC754352), prexasertib (NSC758257), carboplatin (NSC241240) and oxaliplatin (NSC266046), were obtained from the National Cancer Institute (NCI) Developmental Therapeutics Program Chemical Repository (21). The FDA-approved anticancer drug set is available from the Developmental Therapeutics Program at https://dtp.cancer.gov/organization/dscb/obtaining/. […] The stock solutions were prepared in dimethyl sulfoxide (DMSO, Sigma-Aldrich, St. Louis, MO, cat. D2650), except for the platinum compounds which were prepared in saline (Quality Biological, Gaithersburg, MD, cat. 114-055-101), at 800-fold the tested concentration and stored at -70 degrees C prior to their use. All drugs and investigational agents were tested over a range starting from a high concentration at or near the clinical Cmax and decreasing in half-log increments. If the clinical Cmax for an agent had not been determined, the highest concentration tested was 10 microM, except for SN-38, which was tested at a high concentration of 1 microM.
Cell Culture. All cells were maintained in an incubator at 37 degrees C and 5% CO2 with 95% humidity. The PDC lines were cultured according to standard operating procedures established by the NCI PDMR (https://pdmr.cancer.gov). Table 3 of the manuscript, lists the cell lines along with the number of the three cell types plated to form the mct-spheroids and media for tumor cell growth. After thawing, all PDC lines, except 997537-175-T-J1-PDC and 415267-285-R-J2-PDC, were cultured in Matrigel-coated flasks prepared with a working solution of 1X Ham's F-12 nutrient mix, without supplementation (Thermo Fisher Scientific, cat. 11765054), 100 U/mL penicillin-streptomycin (Thermo Fisher Scientific, cat. 15140122), and 2.5% Matrigel (Corning Inc., Corning, NY, cat. 354248) for the first three passages. The two PDC lines 997537-175-T-J1-PDC and 415267-285-R-J2-PDC were cultured on uncoated flasks. The 857933-349-R-J2-PDC line was cultured in 6C/Colon 1B media containing advanced DMEM/F-12 (Thermo Fisher Scientific, cat. 12634028), 10 mM HEPES (Thermo Fisher Scientific, cat. 15630080), 1X GlutaMAX supplement (Thermo Fisher Scientific, cat. 35050061), 0.1 mg/mL primocin (InvivoGen, San Diego, CA, cat. ant-pm-2), 10% defined fetal bovine serum, heat inactivated (HyClone Laboratories Inc., Logan, UT, cat. SH30070.03HI), 50% L-WRN conditioned media (ATCC, cat. CRL-3276), 1.25 mM N-Acetyl-L-cysteine (Sigma-Aldrich, cat. A9165), 10 mM nicotinamide (Sigma-Aldrich, cat. N0636), 1X B-27 supplement (Thermo Fisher Scientific, cat. 17504044), 1X N-2 supplement (Thermo Fisher Scientific, cat. […]

[1] = second compound 0.0316 µM, first compound 0.0316 µM
[2] = second compound 0.0316 µM, first compound 0.1 µM
[3] = second compound 0.0316 µM, first compound 0.316 µM
[4] = second compound 0.0316 µM, first compound 1 µM
[5] = second compound 0.0316 µM, first compound 3.16 µM
[6] = second compound 0.0316 µM, first compound 10 µM
[7] = second compound 0.1 µM, first compound 0.0316 µM
[8] = second compound 0.1 µM, first compound 0.1 µM
[9] = second compound 0.1 µM, first compound 0.316 µM
[10] = second compound 0.1 µM, first compound 1 µM
[11] = second compound 0.1 µM, first compound 3.16 µM
[12] = second compound 0.1 µM, first compound 10 µM
[13] = second compound 0.316 µM, first compound 0.0316 µM
[14] = second compound 0.316 µM, first compound 0.1 µM
[15] = second compound 0.316 µM, first compound 0.316 µM
[16] = second compound 0.316 µM, first compound 1 µM
[17] = second compound 0.316 µM, first compound 3.16 µM
[18] = second compound 0.316 µM, first compound 10 µM
[19] = second compound 1 µM, first compound 0.0316 µM
[20] = second compound 1 µM, first compound 0.1 µM
[21] = second compound 1 µM, first compound 0.316 µM
[22] = second compound 1 µM, first compound 1 µM
[23] = second compound 1 µM, first compound 3.16 µM
[24] = second compound 1 µM, first compound 10 µM
[25] = second compound 3.16 µM, first compound 0.0316 µM
[26] = second compound 3.16 µM, first compound 0.1 µM
[27] = second compound 3.16 µM, first compound 0.316 µM
[28] = second compound 3.16 µM, first compound 1 µM
[29] = second compound 3.16 µM, first compound 3.16 µM
[30] = second compound 3.16 µM, first compound 10 µM
[31] = second compound 10 µM, first compound 0.0316 µM
[32] = second compound 10 µM, first compound 0.1 µM
[33] = second compound 10 µM, first compound 0.316 µM
[34] = second compound 10 µM, first compound 1 µM
[35] = second compound 10 µM, first compound 3.16 µM
[36] = second compound 10 µM, first compound 10 µM
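Also: spheroids exposed to compounds for 7 days.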

COc1ccc([C@@H](O)c2cc(-c3ncnc4cc(N5CCOCC5)ccc34)c(F)cc2Cl)nn1 + COC1C(OC(N)=O)C(O)C(Oc2ccc3c(O)c(NC(=O)c4ccc(O)c(CC=C(C)C)c4)c(=O)oc3c2C)OC1(C)C
IC50 (second compound 0.0316 µM): 3.45 µM | IC50 (second compound 0.1 µM): 4.09 µM | IC50 (second compound 0.316 µM): 4.05 µM | IC50 (second compound 1 µM): 4.77 µM | IC50 (second compound 3.16 µM): 3.15 µM | IC50 (second compound 10 µM): 3.75 µM | viability, T/C [1]: 95.4% | viability, T/C [2]: 85.4% | viability, T/C [3]: 76.3% | viability, T/C [4]: 65.5% | viability, T/C [5]: 53.4% | viability, T/C [6]: 33.4% | viability, T/C [7]: 104% | viability, T/C [8]: 104% | viability, T/C [9]: 81.9% | viability, T/C [10]: 71.2% | viability, T/C [11]: 56.7% | viability, T/C [12]: 33.8% | viability, T/C [13]: 100% | viability, T/C [14]: 93.3% | viability, T/C [15]: 86.6% | viability, T/C [16]: 73.7% | viability, T/C [17]: 54.2% | viability, T/C [18]: 32.8% | viability, T/C [19]: 94.2% | viability, T/C [20]: 81.4% | viability, T/C [21]: 90% | viability, T/C [22]: 66.8% | viability, T/C [23]: 61.9% | viability, T/C [24]: 34.3% | viability, T/C [25]: 89.9% | viability, T/C [26]: 81.3% | viability, T/C [27]: 97.2% | viability, T/C [28]: 68.4% | viability, T/C [29]: 52.5% | viability, T/C [30]: 31.8% | viability, T/C [31]: 108% | viability, T/C [32]: 86.9% | viability, T/C [33]: 87.5% | viability, T/C [34]: 69.1% | viability, T/C [35]: 55.5% | viability, T/C [36]: 31.5%

O=C(Nc1ccc(O)c(NS(=O)(=O)c2ccc(F)cc2)c1)c1ccc(-c2ccccc2)cc1 + COC1C(OC(N)=O)C(O)C(Oc2ccc3c(O)c(NC(=O)c4ccc(O)c(CC=C(C)C)c4)c(=O)oc3c2C)OC1(C)C
IC50 (second compound 0.0316 µM): > 10 µM | IC50 (second compound 0.1 µM): > 10 µM | IC50 (second compound 0.316 µM): > 10 µM | IC50 (second compound 1 µM): > 10 µM | IC50 (second compound 3.16 µM): > 10 µM | IC50 (second compound 10 µM): > 10 µM | viability, T/C [1]: 90.9% | viability, T/C [2]: 91.9% | viability, T/C [3]: 92.7% | viability, T/C [4]: 102% | viability, T/C [5]: 98.6% | viability, T/C [6]: 72.9% | viability, T/C [7]: 104% | viability, T/C [8]: 96.7% | viability, T/C [9]: 98.1% | viability, T/C [10]: 104% | viability, T/C [11]: 109% | viability, T/C [12]: 72.7% | viability, T/C [13]: 105% | viability, T/C [14]: 95.6% | viability, T/C [15]: 90% | viability, T/C [16]: 107% | viability, T/C [17]: 106% | viability, T/C [18]: 87.3% | viability, T/C [19]: 107% | viability, T/C [20]: 96% | viability, T/C [21]: 95% | viability, T/C [22]: 100% | viability, T/C [23]: 102% | viability, T/C [24]: 71.4% | viability, T/C [25]: 96.6% | viability, T/C [26]: 92% | viability, T/C [27]: 95.1% | viability, T/C [28]: 94.1% | viability, T/C [29]: 101% | viability, T/C [30]: 84.1% | viability, T/C [31]: 94.8% | viability, T/C [32]: 97.3% | viability, T/C [33]: 94.6% | viability, T/C [34]: 97.1% | viability, T/C [35]: 108% | viability, T/C [36]: 75.8%

From PubChem BioAssay AID1963832 (Molecular Pharmacology Branch, DTP, NCI, 2024)
